Data published in PubChem BioAssay AID256 (DTP/NCI, 2004).
Where “and” joins values, the source holds several entries; their conditions need not be identical. Identical values can stand only once. Inconclusive results and toxic doses are left out. Rule for the calls: active = survival T/C of 150% or more; inactive = T/C below 125% in these data.

System: CD2F1 mice, L1210 leukemia ip, survival T/C
Assay: NCI In Vivo Anticancer Drug Screen. Data for tumor model L1210 Leukemia (intraperitoneal) in CD2F1 (CDF1) mice
Settings: higher = longer survival
In short: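 Read-out first: treated-group measurement over vehicle-control measurement, expressed as a ratio. Animals bore a transplanted tumor line and were dosed with compound or vehicle.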

[1] = endpoint: mean survival time, dose: 100.0 mg/kg/injection, schedule: Q01DX009 (ip), vehicle: saline sonified
[2] = endpoint: mean survival time, dose: 100.0 mg/kg/injection, schedule: Q04DX003 (ip), vehicle: saline with Tween-80
[3] = endpoint: mean survival time, dose: 200.0 mg/kg/injection, schedule: Q01DX009 (ip), vehicle: saline sonified
[4] = endpoint: mean survival time, dose: 200.0 mg/kg/injection, schedule: Q04DX003 (ip), vehicle: saline with Tween-80
[5] = endpoint: mean survival time, dose: 400.0 mg/kg/injection, schedule: Q04DX003 (ip), vehicle: saline with Tween-80
[6] = endpoint: mean survival time, dose: 50.0 mg/kg/injection, schedule: Q01DX009 (ip), vehicle: saline with Tween-80
[7] = endpoint: mean survival time, dose: 100.0 mg/kg/injection, schedule: Q01DX009 (ip), vehicle: saline with Tween-80
[8] = endpoint: mean survival time, dose: 200.0 mg/kg/injection, schedule: Q01DX009 (ip), vehicle: saline with Tween-80
[9] = endpoint: mean survival time, dose: 400.0 mg/kg/injection, schedule: Q01DX009 (ip), vehicle: saline with Tween-80
[10] = endpoint: mean survival time, dose: 50.0 mg/kg/injection, schedule: Q01DX001 (ip), vehicle: saline with Tween-80
[11] = endpoint: mean survival time, dose: 100.0 mg/kg/injection, schedule: Q01DX001 (ip), vehicle: saline with Tween-80
[12] = endpoint: mean survival time, dose: 200.0 mg/kg/injection, schedule: Q01DX001 (ip), vehicle: saline with Tween-80

Measured: T/C

CC(=N)N(C)CC(=O)O
inactive: endpoint: mean survival time, dose: 100.0 mg/kg/injection, schedule: Q04DX002 (ip), vehicle: saline 103 % of control | endpoint: mean survival time, dose: 200.0 mg/kg/injection, schedule: Q04DX002 (ip), vehicle: saline 103 % of control | endpoint: mean survival time, dose: 400.0 mg/kg/injection, schedule: Q04DX002 (ip), vehicle: saline 100 % of control

Cc1cccc(N=NN(C)C)c1
inactive: endpoint: mean survival time, dose: 19.0 mg/kg/injection, schedule: Q01DX009 (ip), vehicle: Klucel (hydroxypropylcellulose) (HPC) 113 % of control | endpoint: mean survival time, dose: 29.0 mg/kg/injection, schedule: Q01DX009 (ip), vehicle: Klucel (hydroxypropylcellulose) (HPC) 119 % of control | endpoint: mean survival time, dose: 44.0 mg/kg/injection, schedule: Q01DX009 (ip), vehicle: Klucel (hydroxypropylcellulose) (HPC) 123 % of control | endpoint: mean survival time, dose: 66.0 mg/kg/injection, schedule: Q01DX009 (ip), vehicle: Klucel (hydroxypropylcellulose) (HPC) 114 % of control | endpoint: mean survival time, dose: 75.0 mg/kg/injection, schedule: Q01DX001 (ip), vehicle: saline 120 % of control

CCOC(=O)C(N=O)C(=O)c1ccccc1 (centres undefined)
inactive: [1] 95 % of control | [2] 96 % of control | [3] 101 % of control | [4] 95 % of control | endpoint: mean survival time, dose: 400.0 mg/kg/injection, schedule: Q01DX009 (ip), vehicle: saline sonified 92 % of control | [5] 86 % of control

Clc1ccc2ccccc2c1C(Cl)Cl
inactive: endpoint: mean survival time, dose: 25.0 mg/kg/injection, schedule: Q01DX009 (ip), vehicle: saline with Tween-80 96 % of control | [6] 95 % of control | [7] 98 % of control | [2] 91 % of control | [8] 102 % of control | [4] 98 % of control | [9] 102 % of control | [5] 93 % of control

N#CSCc1ccc(Cl)cc1Cl
inactive: [6] 103 % of control | [7] 101 % of control | [8] 96 % of control

Nc1nnnn1C1CCCCC1
inactive: [4] 106 % of control | [9] 92 % of control | [5] 97 % of control

CN(C)CC1CN(C)CC(CN(C)C)C1(O)C(C(=O)N(C)C)c1ccccc1 (centres undefined)
inactive: endpoint: mean survival time, dose: 75.0 mg/kg/injection, schedule: Q01DX001 (ip), vehicle: other 98 % of control | endpoint: mean survival time, dose: 150.0 mg/kg/injection, schedule: Q01DX001 (ip), vehicle: other 100 % of control | endpoint: mean survival time, dose: 300.0 mg/kg/injection, schedule: Q01DX001 (ip), vehicle: other 98 % of control

COC(=O)CC(OC)OC
inactive: endpoint: mean survival time, dose: 100.0 mg/kg/injection, schedule: Q04DX003 (ip), vehicle: saline 103 % of control | endpoint: mean survival time, dose: 200.0 mg/kg/injection, schedule: Q04DX003 (ip), vehicle: saline 94 % of control | endpoint: mean survival time, dose: 400.0 mg/kg/injection, schedule: Q04DX003 (ip), vehicle: saline 92 % of control

CC(=O)Nc1cc(N)cc(-c2ccccc2)c1
inactive: endpoint: mean survival time, dose: 50.0 mg/kg/injection, schedule: Q04DX002 (ip), vehicle: saline with Tween-80 96 % of control and 104 % of control | [2] 94 % of control and 97 % of control | [4] 90 % of control and 94 % of control | [5] 94 % of control and 100 % of control

CCC(CO)C(C)C (centres undefined)
inactive: [2] 97 % of control | [4] 100 % of control

O=C1c2c(O)ccc(Cl)c2C(=O)c2c(O)ccc(Cl)c21
inactive: [7] 95 % of control | [8] 93 % of control | [9] 97 % of control

C=C(C)C1CNC(C(=O)O)C1CC(=O)O (centres undefined)
inactive: endpoint: mean survival time, dose: 6.25 mg/kg/injection, schedule: Q04DX003 (ip), vehicle: saline sonified 97 % of control | endpoint: mean survival time, dose: 12.5 mg/kg/injection, schedule: Q04DX003 (ip), vehicle: saline sonified 95 % of control | endpoint: mean survival time, dose: 25.0 mg/kg/injection, schedule: Q04DX003 (ip), vehicle: saline sonified 109 % of control

CCCCNc1cc(=O)[nH]c(=O)[nH]1
inactive: [10] 104 % of control | [11] 98 % of control | [12] 102 % of control

C=C(C)C1C2CC3(C)C4(CO4)C4OC4C3(O)C1C(=O)O2 (centres undefined)
inactive: endpoint: median survival time, dose: 0.25 mg/kg/injection, schedule: Q01DX009 (ip), vehicle: Klucel (hydroxypropylcellulose) (HPC) 100 % of control | endpoint: median survival time, dose: 0.5 mg/kg/injection, schedule: Q01DX009 (ip), vehicle: Klucel (hydroxypropylcellulose) (HPC) 98 % of control | endpoint: median survival time, dose: 1.0 mg/kg/injection, schedule: Q01DX009 (ip), vehicle: Klucel (hydroxypropylcellulose) (HPC) 103 % of control | endpoint: median survival time, dose: 2.0 mg/kg/injection, schedule: Q01DX009 (ip), vehicle: Klucel (hydroxypropylcellulose) (HPC) 97 % of control

COc1ccc(C(=O)NS(=O)(=O)c2ccc(C)cc2)cc1
inactive: [7] 103 % of control | [8] 98 % of control | [9] 104 % of control

CCOC(=O)c1ccc(NC(=O)Nc2cccc(NC(C)=O)c2)cc1
inactive: [10] 96 % of control | [6] 87 % of control and 91 % of control | endpoint: mean survival time, dose: 50.0 mg/kg/injection, schedule: Q04DX003 (ip), vehicle: saline with Tween-80 90 % of control | [11] 92 % of control | [7] 87 % of control and 91 % of control | endpoint: mean survival time, dose: 100.0 mg/kg/injection, schedule: Q04DX002 (ip), vehicle: saline with Tween-80 87 % of control and 90 % of control | [2] 86 % of control | [12] 96 % of control | [8] 91 % of control | endpoint: mean survival time, dose: 200.0 mg/kg/injection, schedule: Q04DX002 (ip), vehicle: saline with Tween-80 91 % of control | [4] 100 % of control | endpoint: mean survival time, dose: 400.0 mg/kg/injection, schedule: Q01DX001 (ip), vehicle: saline with Tween-80 92 % of control

O=C(c1ccccc1)N(C(=O)c1ccccc1)c1cccc[n+]1[O-]
inactive: [2] 100 % of control | [4] 97 % of control | [5] 102 % of control

CC(=O)Oc1c(Br)c(-c2cc([N+](=O)[O-])c(C)c([N+](=O)[O-])c2C)c(OC(C)=O)c(Br)c1-c1cc([N+](=O)[O-])c(C)c([N+](=O)[O-])c1C
inactive: [2] 93 % of control | [4] 93 % of control | [5] 87 % of control

C[Si](C)(C)CS(=O)[O-].[C-]#[O+].[C-]#[O+].[Fe+6].[c-]1[c-][c-][cH-][c-]1
inactive: endpoint: mean survival time, dose: 12.5 mg/kg/injection, schedule: Q04DX002 (ip), vehicle: saline 105 % of control | endpoint: mean survival time, dose: 25.0 mg/kg/injection, schedule: Q04DX002 (ip), vehicle: saline 94 % of control | endpoint: mean survival time, dose: 50.0 mg/kg/injection, schedule: Q04DX002 (ip), vehicle: saline 87 % of control

CCOC(=O)NC1CCC1NC(=O)OCC (centres undefined)
inactive: [2] 95 % of control | [4] 106 % of control | [5] 107 % of control

CC/C(=C(/CC)c1ccc(O)cc1)c1ccc(O)cc1
inactive: endpoint: median survival time, dose: 12.5 mg/kg/injection, schedule: Q01DX009 (sc), vehicle: steriod suspending solution 114 % of control and 105 % of control | endpoint: median survival time, dose: 25.0 mg/kg/injection, schedule: Q01DX009 (sc), vehicle: steriod suspending solution 114 % of control and 100 % of control | endpoint: median survival time, dose: 50.0 mg/kg/injection, schedule: Q01DX009 (sc), vehicle: steriod suspending solution 114 % of control and 105 % of control | endpoint: median survival time, dose: 100.0 mg/kg/injection, schedule: Q01DX009 (sc), vehicle: steriod suspending solution 100 % of control

CCOC(=O)CC(=O)c1c(C)cc(C)c(Br)c1C
inactive: [4] 97 % of control | [5] 92 % of control

Cc1ccc(S(=O)(=O)OC2CCC3C4CCC5=CC(=O)CCC5(C)C4CCC23C)cc1 (centres undefined)
inactive: endpoint: mean survival time, dose: 75.0 mg/kg/injection, schedule: Q04DX003 (sc), vehicle: steriod suspending solution 98 % of control | endpoint: mean survival time, dose: 150.0 mg/kg/injection, schedule: Q04DX003 (sc), vehicle: steriod suspending solution 98 % of control | endpoint: mean survival time, dose: 300.0 mg/kg/injection, schedule: Q04DX003 (sc), vehicle: steriod suspending solution 98 % of control

Cc1ccc(S(=O)(=O)SCC(=O)c2ccc([N+](=O)[O-])cc2)cc1
inactive: endpoint: mean survival time, dose: 100.0 mg/kg/injection, schedule: Q01DX001 (ip), vehicle: saline 94 % of control | [1] 96 % of control | endpoint: mean survival time, dose: 200.0 mg/kg/injection, schedule: Q01DX001 (ip), vehicle: saline 92 % of control | [3] 97 % of control | endpoint: mean survival time, dose: 400.0 mg/kg/injection, schedule: Q01DX001 (ip), vehicle: saline 92 % of control

CC(C)(C)C1CCS(=O)(=O)CC1.[Cl][Hg][Cl]
inactive: endpoint: mean survival time, dose: 0.25 mg/kg/injection, schedule: Q04DX003 (ip), vehicle: saline 104 % of control | endpoint: mean survival time, dose: 0.5 mg/kg/injection, schedule: Q04DX003 (ip), vehicle: saline 94 % of control | endpoint: mean survival time, dose: 1.0 mg/kg/injection, schedule: Q04DX003 (ip), vehicle: saline 100 % of control

c1ccc(Oc2ccc(-c3ccc(Oc4ccccc4)cc3)cc2)cc1
inactive: [4] 95 % of control | [5] 91 % of control
